Earlier results in patent US6641797B2, “Perfluoroalkyl-containing complexes with sugar radicals, process for their production and their use” (Schering Aktiengesellschaft, priority 2000, dated 2003).
Where “and” joins values, the source holds several entries; their conditions need not be identical. Equal entries are not always repeated.

How the values were obtained:
[1] = 39° C., 0.47 T; cited from earlier work
[2] = 39° C., 0.47 T; cited from earlier work; remark: listed apart in the source
[3] = tested on: necrotic portion of a tumor; conditions: in vivo; cited from earlier work
[4] = in vivo; cited from earlier work
infarcted tissue = conditions: cited from earlier work

## CNC[C@H](O)[C@@H](O)[C@H](O)[C@H](O)CO.CNC[C@H](O)[C@@H](O)[C@H](O)[C@H](O)CO.O=C([O-])CN(CCN(CC(=O)[O-])CC(=O)O)CCN(CC(=O)[O-])CC(=O)O.[Gd+3] [MAGNEVIST^(R), Gd-DTPA]
[1]
  T^1-Relaxivity in Water: 3.8 L/mmol/s
[2]
  T^1-Relaxivity in Plasma: 4.8 L/mmol/s

## O=S(=O)([O-])c1ccc(-c2c3nc(c(-c4ccc(S(=O)(=O)[O-])cc4)c4ccc([n-]4)c(-c4ccc(S(=O)(=O)[O-])cc4)c4nc(c(-c5ccc(S(=O)(=O)[O-])cc5)c5ccc2[n-]5)C=C4)C=C3)cc1.[Mn+3] [Mn-TPPS, manganese-5,10,15,20-tetrakis(4-sulfonatophenyl)-porphyrin]
[3]
  accumulation in the necrotic portion of a tumor: selectively accumulates in the necrotic portion of a tumor
[4]
  LD50: approximately 0.5 mmol/kg

## CNC[C@H](O)[C@@H](O)[C@H](O)[C@H](O)CO.O=C([O-])CN1CCN(CC(=O)[O-])CCN(CC(=O)O)CCN(CC(=O)[O-])CC1.[Gd+3] [DOTAREM^(R)]
[1]
  T^1-Relaxivity in Water: 3.5 L/mmol/s
[2]
  T^1-Relaxivity in Plasma: 4.3 L/mmol/s

## CNC(=O)CN(CCN(CCN(CC(=O)[O-])CC(=O)NC)CC(=O)[O-])CC(=O)[O-].[Gd+3] [OMNISCAN^(R)]
[1]
  T^1-Relaxivity in Water: 3.8 L/mmol/s
[2]
  T^1-Relaxivity in Plasma: 4.4 L/mmol/s

## C[n+]1ccc(-c2c3nc(c(-c4cc[n+](C)cc4)c4ccc([n-]4)c(-c4cc[n+](C)cc4)c4nc(c(-c5cc[n+](C)cc5)c5ccc2[n-]5)C=C4)C=C3)cc1.[111In+3] [TMPyP, ^111In-5,10,15,20-tetrakis-(4-N-methyl-pyridinium)-porphyrin]
[3]
  accumulation in the necrotic portion of a tumor: does not accumulate in the necrotic portion

## gadolinium-mesoporphyrin [Gd-MP]
Infarcted tissue; kidney and myocardium
  ratio of the signal intensities in MRI, infarcted in comparison to healthy tissue: 2.10 and 2.19
Infarcted tissue; myocardium (Example 1 of WO 95/31219)
  metal content of infarcted tissue versus non-infarcted, myocardium: nine times as large
